Measured values reported in patent publication US20190183812A1, “Compounds For The Treatment Of Neuromuscular Disorders” (NMD PHARMA A/S, priority 2017, published 2019).
Structures can show the parent of a compound that is named as a salt. Where two headings read alike, the source gives them in different places.

Tests used:
[1] = tested on: isolated rat soleus muscles; assay: Recovery of nerve-stimulated force in isolated rat soleus muscles exposed to sub-maximal tubocurarine
Method: (§1) Experiments were performed using rat soleus muscles from either young (4-wk-old) or adult Wistar rats (12-14-week-old). Animal handling, killing and isolation of muscle is described elsewhere All experiments were performed using normal Krebs-Ringer bicarbonate solution (NKR). In solutions with elevated Mg^2+, MgCl2 was added to NKR-solution causing minor increases in osmolarity and ionic strength. In solutions with elevated K^+, 4 mM NaCl was replaced by 4 mM KCl in the NKR.
(§2) In all contraction experiments, isometric force production was determined and force produced during contractions was quantified by measuring the integral of the force response (AUC). Stimulation and force recordings have been described elsewhere. […] In these latter experiments, extracellular recordings of action potentials (M-waves) could be measured without temporal overlap with stimulation artefacts.
The aim was to find compounds that by inhibition of CIC-1 channels can recover nerve-stimulated force under conditions of fatigue including conditions where fatigue is caused by compromised neuromuscular transmission. Neuromuscular transmission dysfunction can develop because of both pre- and/or post-synaptic complications in connection with a disorder or as part of neuromuscular blockade during/after surgery. In the initial series of drug testing, experiments were performed with isolated muscles in the presence of sub-maximal ACh receptor antagonist tubocurarine. Since the inclusion of tubocurarine caused a partial loss of neuromuscular transmission this experiment mimics the conditions in myasthenia gravis and neuromuscular blockade. To mimic conditions with pre-synaptic complication (Lambert Eaton syndrome, motor neuron disorder, polyneuropathy) the intact nerve-muscle preparations were incubated at elevated extracellular Mg^2+, which is known to suppress release of ACh from nerve terminals of motor neurons.
To identify CIC-1 inhibitors that could be used for treatment of neuromuscular disorders we repeated the experiment shown in FIG. 2A but instead of adding 9-AC we added the compounds of interest in different concentrations within the range from 10 to 500 μM. […] For comparison with the muscle only exposed to tubocurarine (grey trace), the two traces have been overlaid. […] For comparison, muscles only exposed to tubocurarine have been included. The dotted line indicates the recovery of force with C8 when compared to the force production before its addition. This value was used in Table 1 for evaluation of the efficacy of the different compounds in recovering force.

[2] = biological target: T1, human CIC-1 channels (Homo sapiens, UniProt P35523); assay: Automated patch-clamp on human CIC-1 expressed in CHO cells; assay type: cell-based; conditions: compound added to the intracellular solution vs vehicle control patches; positive shift reflects CIC-1 inhibition
T1 construct: host or cells: CHO (Chinese hamster ovary) cells
T1 sequence (P35523 whole entry): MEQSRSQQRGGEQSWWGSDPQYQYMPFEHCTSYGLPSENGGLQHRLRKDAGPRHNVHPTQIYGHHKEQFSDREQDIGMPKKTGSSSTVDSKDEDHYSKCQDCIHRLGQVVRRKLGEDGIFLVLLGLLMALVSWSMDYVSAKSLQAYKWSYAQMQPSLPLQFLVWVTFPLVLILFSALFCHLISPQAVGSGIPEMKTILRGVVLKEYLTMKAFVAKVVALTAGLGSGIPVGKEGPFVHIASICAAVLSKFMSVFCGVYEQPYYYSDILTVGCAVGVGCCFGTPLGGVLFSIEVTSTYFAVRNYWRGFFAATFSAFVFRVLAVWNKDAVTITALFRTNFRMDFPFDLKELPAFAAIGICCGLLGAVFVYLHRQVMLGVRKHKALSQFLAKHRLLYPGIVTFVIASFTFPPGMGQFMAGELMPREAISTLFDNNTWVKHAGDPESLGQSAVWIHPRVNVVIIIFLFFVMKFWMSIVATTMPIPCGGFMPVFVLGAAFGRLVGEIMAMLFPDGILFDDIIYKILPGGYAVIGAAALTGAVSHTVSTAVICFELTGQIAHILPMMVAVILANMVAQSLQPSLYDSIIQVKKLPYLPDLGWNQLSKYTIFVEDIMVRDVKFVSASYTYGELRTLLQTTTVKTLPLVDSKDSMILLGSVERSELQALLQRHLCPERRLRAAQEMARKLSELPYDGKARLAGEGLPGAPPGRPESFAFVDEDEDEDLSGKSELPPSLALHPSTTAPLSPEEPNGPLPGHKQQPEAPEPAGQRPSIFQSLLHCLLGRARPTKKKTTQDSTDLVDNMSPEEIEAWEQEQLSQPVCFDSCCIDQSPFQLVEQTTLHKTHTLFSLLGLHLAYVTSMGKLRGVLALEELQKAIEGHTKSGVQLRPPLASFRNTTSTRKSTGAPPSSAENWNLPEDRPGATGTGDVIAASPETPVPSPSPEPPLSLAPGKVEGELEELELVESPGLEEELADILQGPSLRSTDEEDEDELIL
Method: The investigatory goal of these experiments was to evaluate how compounds affect the open probability and current amplitude of human CIC-1 channels expressed in CHO cells. Experiments were performed using an automated patch clamp system that allowed high throughput testing of whole cell patches together with both intracellular and extracellular addition of compound.
Automated whole cell patch clamp experiments were performed with the Qpatch 16 system (Sophion Bioscience, Ballerup, Denmark) at room temperature. Data acquisition and analysis were performed in the Qassay software (ver. 5.6, Odense).
To evoke CIC-1 currents in whole cell patches, the membrane potential was initially stepped from a holding potential of −30 mV to +60 mV for 100 ms and then to various test voltages (sweeps) ranging from +120 mV to −140 mV in steps of 20 mV for 300 ms. To obtain tail currents, the membrane potential was stepped to −100 mV after each test voltage for 300 ms and then relaxed to −30 mV for 2 sec between sweeps (FIG. 3). I/V relationships for whole cell instant and steady state current amplitudes were obtained by plotting average current densities at the beginning and at the end of the 300 ms step against the membrane potential (FIG. 4).
In order to determine the relative overall open probability (P0), the instantaneous tail currents were normalized to the maximal tail current obtained following the most positive voltage step and plotted against the test voltage. Plots of normalized tail currents from each whole cell patch were then fitted to a Boltzmann function allowing determination of half activation voltages (V1/2, FIG. 5).
For automated patch clamp experiments extracellular solutions contained: 2 mM CaCl2, 1 mM MgCl2, 10 mM HEPES, 4 mM KCl, 145 mM NaCl, 10 mM Glucose, pH adjusted to 7.4 with NaOH (2 M). Osmolality adjusted to ˜320 using sucrose.
Intracellular solutions contained: 80 mM CsF, 60 mM CsCl, 5/1 mM KOH/EGTA, 10 mM HEPES, 10 mM NaCl, pH adjusted to 7.2 with NaOH (2 M). Osmolality adjusted to ˜320 mOsm using sucrose.
Cells used in patch clamp experiments were Chinese hamster ovary cells (CHO) constitutively expressing human CIC-1 channels. The amino acid sequence encoded by the cDNA used to create this cell line was identical to the translated sequence for GenBank accession number NM_000083.2. Cells were produced by Charles River (Catalogue CT6175, Cleveland Ohio, USA) in a cryopreserved format. Experiments were performed on the cells directly after thawing (3×10^6 cells used in each experiment).
To evaluate the compound effect on CIC-1, when applied directly to the intracellular side of the cell membrane, the half activation voltage, V1/2, was determined from whole cell patches with compound added to the intracellular solution and then compared to V1/2 determined from control cell patches with only vehicle added to the intracellular solution. Additionally, the effect of extracellular added compound was evaluated by determine V1/2 and steady state current amplitudes before and after exchanging the extracellular solution to contain compound.
The difference in half activation voltage of CIC-1 channels, […]V1/2, was determined as the difference between the cell patches treated intracellularly with compound and control cells patches and is reported in Table 4 below. A positive shift in […]V1/2 is reflecting CIC-1 channel inhibition by the tested compound. P-values of <0.05 is considered significant.

[3] = biological target: rat soleus muscles; assay: Tubocurarine concentration required to depress nerve-stimulated force by 50% (Kd,tub), combination with acetylcholinesterase inhibitors
Method: FIGS. 5A-5E. […] Muscles from 4-week-old rats were stimulated to contract by activating the motor nerve with short duration pulses in field stimulation. Muscles contracted every 10 min for 2 s in response to 30 Hz stimulation. Four different experimental conditions were used. […] After this pre-incubation, increasing concentrations of tubocurarine were added to the bath solutions with 60 min (corresponding to six contractions) between each increase in tubocurarine. […] FIG. 5C similar to FIG. 5A but this muscle had been pre-incubated with neostigmine. […] The force integral (AUC) was determined at each tubocurarine concentration. Such AUC determinations were plotted against tubocurarine concentration for each muscle.
CIC-1 is a novel target in treatment of neuromuscular complications and it was therefore explored whether this approach for symptomatic treatment could be used in combination with existing symptomatic treatment approaches. In myasthenia gravis, which in isolated muscles was mimicked by tubocurarine, the symptoms of muscle fatigue are most commonly treated with inhibitors of acethylcholineesterase of which neostigmine and pyridostigmine are examples. Also, neostigmine is the most commonly used reversal agent of neuromuscular blocked after surgery. […] FIG. 5A-D show recordings of nerve-stimulated force production at different tubocurarine concentrations when tested under the four experimental conditions. […] To quantify the effect of compounds on tubocurarine sensitivity, the force at the different tubocurarine concentrations was determined. In plots of nerve-stimulated force against tubocurarine concentration (FIG. 5E) Kd,tub was determined by fitting four parameter sigmoidal functions to the data and the Kd,tub for the different compounds have been collected in Table 4.

[4] = tested on: isolated rat soleus muscles; assay: Recovery of nerve-stimulated force in isolated rat soleus muscles at elevated extracellular Mg2+ (3.5 mM)
Method: as §1, §2
The aim was to find compounds that by inhibition of CIC-1 channels can recover nerve-stimulated force under conditions of fatigue including conditions where fatigue is caused by compromised neuromuscular transmission. […]
The next series of experiments determined whether the compounds that recovered nerve-stimulated force in the presence of tubocurarine could also recover nerve-stimulated force at elevated extracellular Mg^2+.

[5] = biological target: rat soleus muscles; assay: Mg2+ concentration required to depress nerve-stimulated force by 50% (Kd,Mg2+), combination with 3,4-AP; conditions: 3,4-AP (10 μM) alone
Method: FIGS. 6A-6E. […] Muscles from 4-week-old rats were stimulated to contract by activating the motor nerve with short duration pulses in field stimulation. Muscles contracted every 10 min for 2 s in response to 30 Hz stimulation. Four different experimental conditions were used. […] C) similar to A) but this muscle had been pre-incubated with 3,4-AP. […] The force integral (AUC) was determined at each extracellular Mg^2+ concentration. AUC was plotted against Mg^2+ concentration and the data was fitted to a sigmoidal function. This provided the extracellular Mg^2+ concentration that was required to reduce the nerve-stimulated force to 50% (Mg50) under the four different conditions (see Table 5).
While the use of tubocurarine mimics conditions with reduced neuromuscular transmission due to post-synaptic dysfunction (myasthenia gravis, neuromuscular blockade), the experiments with elevated extracellular Mg^2+ mimics conditions with pre-synaptic dysfunction akin to a range of neuromuscular disorders including Lambert Eaton syndrome, motor neuron disorders and polyneuropathy. Patients with Lambert Eaton syndrome are commonly treated with inhibitors of voltage gated K^+ channels such as 3,4-diaminopyridine (3,4-AP). Based on this it was determined whether recovery of nerve-stimulated force at elevated extracellular Mg^2+ with CIC-1 inhibiting compounds could be added to force recovery with 3,4-AP. […] FIG. 6A-D show recordings of nerve-stimulated force production at different Mg^2+ concentrations when tested under these four experimental conditions. […] To quantify the effect of compounds on Mg^2+ sensitivity the force at the different Mg^2+ concentrations was determined. In plots of nerve-stimulated force against Mg^2+ concentration (FIG. 6E) the Kd,Mg^2+ was determined by fitting four parameter sigmoidal function to the data. Kd, Mg^2+ for the different compounds have been collected in Table 5.

[6] = Rattus norvegicus, 40 min; read-out: 50 μM % change after addition

Structure (SMILES)	activation at 50 µM [1, 6]	ΔV½ [2]	further results
C[C@H](OCc1ccccc1)C(=O)O [Compound C5, (2S)-2-(benzyloxy)propanoic acid]	-7%	–	–
C=Cc1cc(Br)ccc1O[C@@H](C)C(=O)O [Compound A-17, (2S)-2-(4-bromo-2-ethenylphenoxy)propanoic acid]	–	10.3 mV	–
NCC(Oc1ccc(F)cc1)C(=O)O (centres unmarked) [Compound C9, 3-amino-2-(4-fluorophenoxy)propanoic acid hydrochloride]	-14%	–	–
CN(C)C(=O)Oc1cccc([N+](C)(C)C)c1 [Neostigmine, neostigmine, reference compound]	–	–	Kd ([3]; Neostigmine (10 nM) alone): 0.166 ± 0.013 µM
CCC(Oc1ccc(Cl)cc1)C(=O)O (centres unmarked) [Compound C7, 2-(4-chlorophenoxy)butanoic acid]	-12%	–	–
COCC(C)C(Oc1ccc(Br)cc1)C(=O)O (centres unmarked) [Compound C21, 2-(4-bromophenoxy)-4-methoxy-3-methylbutanoic acid]	-3%	–	–
O=C(O)c1c2ccccc2cc2ccccc12 [Compound 9-AC, 9-anthracenecarboxylic acid, reference compound]	–	–	recovery of force and M-wave signal ([1]; tubocurarine): marked recovery of both force and M-wave signal; recovery of force and M-wave signal [4]: marked recovery of both force and M-wave signal
CC(C(=O)O)S(=O)(=O)c1ccc(F)cc1 (centres unmarked) [Compound C6, 2-(4-fluorobenzenesulfonyl)propanoic acid]	-11%	–	–
C[C@H](Oc1ccc(Cl)cc1C1CC1)C(=O)O [Compound A-4, (2S)-2-(4-chloro-2-cyclopropylphenoxy)propanoic acid]	–	8.8 mV	–
C#Cc1cc(Cl)ccc1O[C@@H](C)C(=O)O [Compound A-20, (2S)-2-(4-chloro-2-ethynylphenoxy)propanoic acid]	–	26.4 mV	–
CCC(=O)c1cc(Cl)ccc1O[C@@H](C)C(=O)O [Compound A-30, (2S)-2-(4-chloro-2-propanoylphenoxy)propanoic acid]	–	6.2 mV	–
CN(C)C(=O)Oc1ccc[n+](C)c1 [Pyridostigmine, pyridostigmine, reference compound]	–	–	Kd ([3]; Pyridostigmine (100 nM) alone): 0.127 ± 0.015 µM
Nc1ccncc1N [3,4-AP, 3,4-diaminopyridine, reference compound]	–	–	Kd [5]: 5800 ± 300 µM
CC(Oc1ccc(Cl)cc1)C(=O)Oc1ccc(Cl)cc1 (centres unmarked) [Compound C11, 4-chlorophenyl 2-(4-chlorophenoxy)propanoate]	–	–	activation at 50 µM ([1]; Rattus norvegicus, 40 min, read-out: 50 μM % change after addition): 46%
C[C@H](Oc1ccc(Br)cc1C=C(F)F)C(=O)O [Compound A-36, (2S)-2-[4-bromo-2-(2,2-difluoroethenyl)phenoxy]propanoic acid]	–	21.5 mV	–
C#Cc1cc(Br)ccc1O[C@@H](C)C(=O)O [Compound A-19, (2S)-2-(4-bromo-2-ethynylphenoxy)propanoic acid]	–	7.7 mV	–
